From patent US20070128217A1 (priority 2003, published 2007)

Legend:
[1] = system: antibodies in sera from SARS patients (sera 1a, 1b, 2, 6, 37, 62, London, SARS-yellow, SARS-green); type: binding, human; parameters: Binding of serum 6 to linear peptides of protein X1 of SARS-CoV Urbani / Binding of serum 37 to linear peptides of protein X1 of SARS-CoV Urbani / Binding of serum 6 to looped/cyclic peptide (PEPSCAN-ELISA) / Binding of serum 37 to looped/cyclic peptide (PEPSCAN-ELISA) / Binding of serum 37 to looped/cyclic peptides of protein X1 of SARS-CoV Urbani / Binding of serum 6 to linear peptides of protein X2 / Binding of serum 37 to linear peptides of protein X2 / Binding of serum 37 to looped/cyclic peptides of protein X2 of SARS-CoV Urbani / Binding of serum 6 to linear peptides of protein M of SARS-CoV Urbani / Binding of serum 37 to linear peptides of protein M of SARS-CoV Urbani / Binding of serum 6 to looped/cyclic peptides of protein M of SARS-CoV Urbani / Binding of serum 37 to looped/cyclic peptides of protein M of SARS-CoV Urbani / Binding of serum 6 to linear peptides of protein X3 of SARS-CoV Urbani / Binding of serum 37 to linear peptides of protein X3 of SARS-CoV Urbani / Binding of serum 37 to looped/cyclic peptides of protein X3 of SARS-CoV Urbani / Binding of serum 6 to linear peptides of protein X4 of SARS-CoV Urbani / Binding of serum 37 to linear peptides of protein X4 of SARS-CoV Urbani / Binding of serum 37 to looped/cyclic peptides of protein X4 of SARS-CoV Urbani / Binding of serum 6 to linear peptides of protein X5 of SARS-CoV Urbani / Binding of serum 37 to linear peptides of protein X5 of SARS-CoV Urbani / Binding of serum 37 to looped/cyclic peptides of protein X5 of SARS-CoV Urbani / Binding of serum 6 to linear peptides of protein N of SARS-CoV Urbani / Binding of serum 37 to linear peptides of protein N of SARS-CoV Urbani / Binding of serum 6 to linear peptide (PEPSCAN-ELISA) / Binding of serum 1a to looped/cyclic peptides of protein N of SARS-CoV Urbani / Binding of serum 1b to looped/cyclic peptides of protein N of SARS-CoV Urbani / Binding of serum 2 to looped/cyclic peptides of protein N of SARS-CoV Urbani / Binding of serum 6 to looped/cyclic peptides of protein N of SARS-CoV Urbani / Binding of serum 37 to looped/cyclic peptides of protein N of SARS-CoV Urbani / Binding of serum 62 to looped/cyclic peptides of protein N of SARS-CoV Urbani / Binding of serum London to looped/cyclic peptides of protein N of SARS-CoV Urbani / Binding of serum SARS-green to looped/cyclic peptides of protein N of SARS-CoV Urbani: unit not given here
[2] = system: control sera (pooled serum of ten healthy LUMC hospital workers; commercial negative donor pooled serum from the Dutch bloodbank); type: binding, human; parameters: Binding of Control serum LUMC to linear peptides / Binding of Control serum Blood-bank to linear peptides / Binding of Control serum LUMC to looped peptides / Binding of Control Serum Blood-Bank to Looped peptides / Binding of Control serum LUMC to linear peptides of the protein M of SARS-CoV Urbani / Binding of Control serum Blood-bank to linear peptides of the protein M of SARS-CoV Urbani / Binding of Control serum LUMC to looped peptides of the protein M of SARS-CoV Urbani / Binding of Control Serum Blood-Bank to Looped peptides of the protein M of SARS-CoV Urbani: unit not given here
[3] = system: rabbit serum obtained by immunizing a rabbit with the SARS-CoV strain Frankfurt 1; type: binding; parameters: Binding of a rabbit serum to linear peptides / Binding of a rabbit serum to looped peptides / Rabbit serum linear peptides / Rabbit serum looped peptides / Binding of a rabbit serum to linear peptides of protein N of SARS-CoV Urbani (Rabbit serum linear peptides) / Binding of a rabbit serum to looped/cyclic peptides of protein N of SARS-CoV Urbani (Rabbit serum looped peptides): unit not given here
[4] = system: recombinant human anti-SARS-CoV antibody 03-018; type: binding; parameters: Binding of antibody 03-018 to linear peptides of the N protein of SARS-CoV Urbani / Binding of antibody 03-018 to looped/cyclic peptides of the N protein of SARS-CoV Urbani: unit not given here

Sequence	Binding of serum 1a to linear peptides of protein N of SARS-CoV Urbani [1]	Binding of serum 1a to looped/cyclic peptides of protein N of SARS-CoV Urbani [1]	Binding of serum 1b to linear peptides of protein N of SARS-CoV Urbani [1]	Binding of serum 1b to looped/cyclic peptides of protein N of SARS-CoV Urbani [1]	Binding of serum 2 to linear peptides of protein N of SARS-CoV Urbani [1]	Binding of serum 2 to looped/cyclic peptides of protein N of SARS-CoV Urbani [1]	Binding of serum 6 to linear peptides of protein N of SARS-CoV Urbani [1]	Binding of serum 6 to looped/cyclic peptides of protein N of SARS-CoV Urbani [1]	Binding of serum 37 to linear peptides of protein N of SARS-CoV Urbani [1]	Binding of serum 37 to looped/cyclic peptides of protein N of SARS-CoV Urbani [1]	Binding of serum 62 to linear peptides of protein N of SARS-CoV Urbani [1]	Binding of serum 62 to looped/cyclic peptides of protein N of SARS-CoV Urbani [1]	Binding of serum London to linear peptides of protein N of SARS-CoV Urbani [1]	Binding of serum London to looped/cyclic peptides of protein N of SARS-CoV Urbani [1]	Binding of serum SARS-green to linear peptides of protein N of SARS-CoV Urbani [1]	Binding of serum SARS-green to looped/cyclic peptides of protein N of SARS-CoV Urbani [1]	Binding of serum SARS-yellow to linear peptides of protein N of SARS-CoV Urbani [1]	Binding of serum SARS-yellow to looped/cyclic peptides of protein N of SARS-CoV Urbani [1]	Binding of Control Serum Blood-Bank to Looped peptides [2]	Binding of Control serum Blood-bank to linear peptides [2]	further results
EASLPYGANKEGIVW	0.2	0.3	0.1	0.2	0.2	0.4	0.1	0.2	0.5	0.7	0.5	0.6	0.4	0.5	0.2	0.5	0.6	0.2	0.7	0.8	Binding of Control serum LUMC to linear peptides [2]: 0.6; Binding of Control serum LUMC to looped peptides [2]: 0.6; Binding of a rabbit serum to linear peptides of protein N of SARS-CoV Urbani (Rabbit serum linear peptides) [3]: 0.1; Binding of a rabbit serum to looped/cyclic peptides of protein N of SARS-CoV Urbani (Rabbit serum looped peptides) [3]: 0.3; Binding of antibody 03-018 to linear peptides of the N protein of SARS-CoV Urbani [4]: 0.1; Binding of antibody 03-018 to looped/cyclic peptides of the N protein of SARS-CoV Urbani [4]: 0.2
EELRFPRGQGVPINT	0.2	0.6	0.1	0.4	0.3	0.8	0.2	0.5	0.7	1.0	0.7	1.2	0.5	0.7	0.4	0.9	0.6	0.8	1.3	0.8	Binding of Control serum LUMC to linear peptides [2]: 0.8; Binding of Control serum LUMC to looped peptides [2]: 1.1; Binding of a rabbit serum to linear peptides of protein N of SARS-CoV Urbani (Rabbit serum linear peptides) [3]: 0.1; Binding of a rabbit serum to looped/cyclic peptides of protein N of SARS-CoV Urbani (Rabbit serum looped peptides) [3]: 0.6; Binding of antibody 03-018 to linear peptides of the N protein of SARS-CoV Urbani [4]: 0.1; Binding of antibody 03-018 to looped/cyclic peptides of the N protein of SARS-CoV Urbani [4]: 0.3
